Values after ≈ are worked out from the molar mass of the structure shown.

This is an account of results in ChEMBL document CHEMBL5223072, “A look around the West Indies: The spices of life are secondary metabolites” (Bioorg Med Chem, 2020).

Test [1] has as its system Streptococcus. The experiment in a line: Antibiofilm activity against Streptococcus assessed as inhibition of biofilm maturation. It is filed as functional, organism-based.
Test [2] concerns Staphylococcus aureus. The experiment in a line: Antibacterial activity against Staphylococcus aureus SH1000 cultured in iron rich media assessed as reduction in bacterial cell growth. It is filed as functional.
Test [3] deals with Staphylococcus aureus. The experiment in a line: Antibacterial activity against Staphylococcus aureus SH1000 cultured in iron depleted media assessed as reduction in bacterial cell growth. It is filed as functional.
The nature of test [4]: Inhibition of Saccharomyces cerevisiae 20S proteosome.
For test [5], the system named is NCI-H460. The experiment in a line: Cytotoxicity against human NCI-H460 cells assessed as reduction in cell viability. It is filed as functional, cell-based.
In test [6] the test system is HCT-116. The experiment in a line: Cytotoxicity against human HCT-116 cells assessed as reduction in cell viability. The test is classed as functional, cell-based.
Test [7] has as its system A549. Briefly: Antiproliferative activity against human A549 cells assessed as cell growth inhibition measured for 72 hrs. It is filed as functional, cell-based. The settings on record: A549, 72 h.
For test [8], the system named is SK-OV-3. Briefly: Antiproliferative activity against human SK-OV-3 cells assessed as cell growth inhibition measured for 72 hrs. It is filed as functional, cell-based. The settings on record: SK-OV-3, 72 h.
The test system of test [9] is P388. The experiment in a line: Antiproliferative activity against mouse P388 cells assessed as cell growth inhibition. It is filed as functional, cell-based.
Test [10] concerns Candida albicans. The experiment in a line: Antifungal activity against Candida albicans. The test is classed as functional.
For test [11], the system named is Plasmodium falciparum. Briefly: Antimalarial activity against Plasmodium falciparum W2 assessed as reduction in parasite growth. It is filed as functional.
For test [12], the system named is Plasmodium falciparum. Briefly: Antimalarial activity against Plasmodium falciparum D6 assessed as reduction in parasite growth. It is filed as functional.
A short description of test [13]: Inhibition of sodium channel (unknown origin). Also on record: species or system Homo sapiens.
Test [14] concerns A549. The experiment in a line: Antiproliferative activity against human A549 cells assessed as cell viability by WST-8 colorimetric assay. It is filed as functional, cell-based. (Tetrazolium assays rely on reduction of a dye to a coloured formazan, in cell work by metabolically active cells.)
The nature of test [15]: Activation of hypoxia-induced HIF-1 in human T47D cells. The test is classed as cell-based.
For test [16], the system named is Candida albicans. The experiment in a line: Antifungal activity against Candida albicans as reduction in fungal growth. It is filed as functional, organism-based.
In test [17] the test system is P388. Briefly: Antiproliferative activity against mouse P388 cells assessed as cell viability by WST-8 colorimetric assay. The test is classed as functional, cell-based.
Test [18] relates to MCF7. Briefly: Antiproliferative activity against human MCF7 cells assessed as cell viability by WST-8 colorimetric assay. The test is classed as functional, cell-based.
The test system of test [19] is Streptococcus. The experiment in a line: Antibacterial activity against Streptococcus. The test is classed as functional.
Test [20] has as its system Leishmania donovani. Briefly: Antileishmanial activity against Leishmania donovani assessed as parasite growth inhibition. It is filed as functional, organism-based.
A short description of test [21]: Cytotoxicity against human bladder carcinoma cell assessed as reduction in cell viability. It is filed as functional, cell-based.
The test system of test [22] is MAXF401 cell line. Briefly: Cytotoxicity against human NCI-MAXF401 cells assessed as reduction in cell viability. The test is classed as functional, cell-based.
In test [23] the test system is OVCAR-3. The experiment in a line: Cytotoxicity against human OVCAR-3 cells assessed as reduction in cell viability. The test is classed as functional, cell-based.

As to `C[C@H]1/C=C/[C@H]2OC(C)(C)O[C@H]2C(=O)O[C@H](c2cccc(CCCCC(=O)O)c2)[C@@H](C)/C=C/C1`, the IC50 in test [1] was found to be 63000 nM.
As for `CC(C)C[C@H]([C@H](O)c1cc(O)cc(O)c1)[C@@H](O)C[C@@H](O)CC[C@H](C)C[C@H](C)C[C@H](C)CO`, the MIC in [2] and in [3] was 500 µM (≈ 227 µg/mL) each time.
Take `CCC(=O)[C@@H](C)C[C@@H](C)C[C@@H](C)CC[C@H](O)C[C@H](O)[C@@H](CC(C)C)[C@H](O)c1cc(O)cc(O)c1`: the MIC in test [2] and in test [3] was 125 µM (≈ 60.1 µg/mL) throughout.
In test [4], `CCCCCC(=O)N[C@H](C(=O)N[C@@H](CC[S+](C)[O-])C(=O)N[C@@H](CC(C)C)C(=O)[C@@]1(C)CO1)C(C)C` (some centres not stated) gave an IC50 of 2.5 nM. The EC50 turned out to be 9 nM in [5] and 19 nM in test [6].
With `C=C/C=C\[C@H](C)[C@H](OC(N)=O)[C@@H](C)[C@H](O)[C@@H](C)C/C(C)=C\[C@H](C)[C@@H](O)[C@@H](C)/C=C\[C@@H](O)C[C@@H]1OC(=O)[C@H](C)[C@@H](O)[C@H]1C` [DISERMOLIDE], the IC50 was found to be 1.8 nM in test [7], 6.1 nM in test [8] and 0.5 µg/mL (≈ 0.842 µM) in [9].
As for `CCCCCCCCCC[C@H](O)C[C@H](O)[C@H](CC(C)C)[C@H](O)c1cc(O)cc(O)c1`, the MIC in test [2] and in test [3] was 8 µM (≈ 3.4 µg/mL) each time.
With `CCC(=O)CCCCCCC[C@H](O)C[C@H](O)[C@H](CC(C)C)[C@H](O)c1cc(O)cc(O)c1`, the MIC is > 500 µM in test [2] and 250 µM (≈ 110 µg/mL) in test [3].
The corresponding values for `CCC(=O)[C@@H](C)C[C@@H](C)C[C@@H](C)CC[C@H](O)C[C@H](O)[C@H](CC(C)C)[C@H](O)c1cc(OC)cc(OC)c1` are > 500 µM and > 500 µM.
In the case of `CO[C@H]1[S+]([O-])/C2=C\C(=O)[C@](C)(O[C@H]3CC[C@H](N(C)C)[C@@H](C)O3)[C@H](O)CC/C(C)=C\[C@@H]3[C@@H](C)[C@](C)(Cl)[C@@H](C[C@H]3O[C@H]3CC[C@H](N(C)C)[C@@H](C)O3)OC(=O)[C@@H]3CSC(=N3)[C@]1(C)N2` (some centres not stated), it took 16 µg/mL (≈ 17.7 µM) to inhibit growth in test [10] (MIC).
In the case of `CC(C)=CCC[C@H](C)c1ccc(C)cc1O`, the minimum inhibitory concentration (MIC) in test [11] turned out to be 3.6 µg/mL (≈ 16.5 µM); in test [12], 1.8 µg/mL (≈ 8.24 µM).
Molecule `CO/C(=C/C(=O)N1C(=O)C=C[C@@H]1C)CCNC(=O)CC/C=C/C(C)CC/C(=C/Cl)CCCC#CBr` (some centres not stated) gave an IC50 in test [13] of 5000 nM.
Regarding `CCCCCCOC(=O)C[C@H]1C[C@H](OC(=O)/C=C\CCc2coc(/C=C\CNC(=O)OC)n2)C[C@@H](/C=C/c2ccccc2)O1`, the IC50 in [14] was 1.6 nM.
`CCCCCC(=O)N[C@H](C(=O)N[C@@H](CCS(C)(=O)=O)C(=O)N[C@@H](CC(C)C)C(=O)[C@@]1(C)CO1)C(C)C` gave an IC50 in test [4] of 2.6 nM. Also, the values for the EC50 in test [5] and in test [6] were 6 nM and 43 nM, respectively.
As for `CC(=O)[C@@H](C)C[C@@H](C)C[C@@H](C)CC[C@H](O)C[C@H](O)[C@H](CC(C)C)[C@H](O)c1cc(O)cc(O)c1`, the MIC in test [2] and in [3] was 500 µM (≈ 233 µg/mL) in each case.
`C=C[C@@H]1CSC(C[C@@H](C)[C@@H](C)C[C@H](C)CCN(C)C(=O)[C@H](C)CC)=N1`: inhibition in [15] was half-maximal at 5.6 nM (IC50).
For `C=CCCC/C(=C\Cl)CCC(C)/C=C/CCC(=O)NCC/C(=C\C(=O)N1C(=O)C=C[C@@H]1C)OC` (some centres not stated), the IC50 in test [13] came out at 5000 nM.
`CC(=O)O[C@@H]1c2nc(cs2)C(=O)O[C@@H](CCCC(C)(Cl)Cl)[C@H](C)C(=O)O[C@@H](C(C)(C)O)c2nc(cs2)C(=O)OC1(C)C` [HECTOCHLORIN] came in with an IC50 in test [16] of 20 nM.
Take `CC(=O)O[C@H]1C(=O)[C@@]2(C)[C@H]([C@H](OC(=O)c3ccccc3)[C@]3(O)C[C@H](OC(=O)[C@H](O)[C@@H](NC(=O)c4ccccc4)c4ccccc4)C(C)=C1C3(C)C)[C@]1(OC(C)=O)CO[C@@H]1C[C@@H]2O` [PACLITAXEL]: the values for the IC50 in test [7] and in [8] were 3.8 nM and 31.3 nM, respectively.
Regarding `CCCC(=O)[C@@H](C)C[C@@H](C)C[C@@H](C)CC[C@H](O)C[C@H](O)[C@H](CC(C)C)[C@H](O)c1cc(O)cc(O)c1`, the minimal inhibitory concentration (MIC) in test [2] and in test [3] was 63 µM (≈ 31.2 µg/mL) throughout.
Regarding `C=C/C=C\[C@H](C)[C@H](OC(N)=O)[C@@H](C)[C@H](O)[C@@H](C)C/C(C)=C\[C@H](C)[C@@H](O)[C@@H](C)/C=C\[C@@H](O)C[C@@H]1OC(=O)C(C)=C[C@H]1C`, the figures for the IC50 in [7] and in test [8] were 1.8 nM and 6.1 nM, respectively.
On to `CC[C@H](O)C[C@H](O)[C@H](CC(C)C)[C@H](O)c1cc(O)cc(O)c1`, for which the MIC in test [2] and in [3] was > 500 µM in each case.
For `CCC[C@H]1C[C@@H](OC)C[C@H](C)C[C@@H]2C[C@@H](OC(=O)/C=C\CCc3coc(/C=C\CNC(=O)OC)n3)C[C@H](CC(=O)O1)O2`, the IC50 turned out to be 0.72 nM in [17], 43.9 nM in test [14] and 33 nM in test [18].
On to `C[C@H]1/C=C/[C@H]2OC(C)(C)O[C@H]2C(=O)O[C@H](CCCCCCCC(=O)O)[C@@H](C)CCC1`, for which, in [1], the IC50 stood at 44000 nM. The molecule further had an MIC in test [19] of 250 µM (≈ 106 µg/mL).
As for `CC(C)=CCC[C@H](C)c1ccc(C)cc1OC(=O)c1ccncc1`, in test [20], the IC50 turned out to be 600 nM.
For `CCC(=O)[C@@H](C)C[C@@H](C)C[C@@H](C)CC[C@H](O)CC(=O)[C@H](CC(C)C)[C@H](O)c1cc(O)cc(O)c1`, the MIC in [2] and in test [3] was 63 µM (≈ 30.2 µg/mL) in each case.
For the molecule `CCC(=O)[C@@H](C)C[C@@H](C)C[C@@H](C)CC[C@H](O)C[C@H](O)[C@H](CC(C)C)[C@H](O)c1cc(O)cc(O)c1`, the MIC in test [2] and in test [3] was 125 µM (≈ 60.1 µg/mL) throughout.
In the case of `CC1=CC[C@H]2[C@](C)(CO)CCC[C@]2(C)[C@H]1C[C@@]12O[C@@H]1C(=O)C(CO)=C[C@H]2O` [EPOXYPHOLAMIN A], the IC50 in [21] was found to be 0.017 µg/mL (≈ 0.0452 µM); in test [22], 0.01 µg/mL (≈ 0.0266 µM); in test [23] it was 0.017 µg/mL (≈ 0.0452 µM).
As to `C#CCCC/C(=C\Cl)CCC(C)/C=C/CCC(=O)NCC/C(=C\C(=O)N1C(=O)C=C[C@@H]1C)OC` (some centres not stated), 5000 nM corresponded to half-maximal inhibition in [13] (IC50).

As usually defined, the IC50 is the concentration needed to halve the response being measured. A word on the MIC: it is the lowest concentration that inhibits growth of the organism. Usually EC50 stands for the concentration that produces a half-maximal response.
